Source: ChEMBL document CHEMBL1124339, “Conformationally restricted analogues of atriopeptin(103-125)amide” (J Med Chem, 1989)
Positions of bridges follow the written chain, without caps; N, C: chain ends. Residues, ends and D or L forms follow the SMILES beside them. *: point of attachment. Acm = CC(=O)NC*

Assay: Vasorelaxant activity in norepinephrine-contracted rabbit aortic rings, compared to AP(103-126)
Format: functional, Oryctolagus cuniculus, Aorta

Molecule CC[C@H](C)[C@@H]1NC(=O)[C@H](CCCN=C(N)N)NC(=O)[C@H](CC(=O)O)NC(=O)[C@H]([C@@H](C)CC)NC(=O)[C@H](CCCN=C(N)N)NC(=O)CNC(=O)CNC(=O)[C@H](Cc2ccccc2)NC(=O)[C@@H](NC(=O)[C@H](CO)NC(=O)[C@@H](N)CO)CSSC[C@@H](C(=O)N[C@@H](CC(N)=O)C(=O)N[C@@H](CO)C(=O)N[C@@H](Cc2ccccc2)C(=O)N[C@@H](CCCN=C(N)N)C(N)=O)NC(=O)CNC(=O)[C@H](CC(C)C)NC(=O)CNC(=O)[C@H](CSCNC(C)=O)NC(=O)[C@H](CCC(N)=O)NC(=O)[C@H](C)NC(=O)CNC1=O has a Relative potency of 0.21.

Molecule CC[C@H](C)[C@@H]1NC(=O)[C@H](CCCN=C(N)N)NC(=O)[C@H](CC(=O)O)NC(=O)[C@H]([C@@H](C)CC)NC(=O)[C@H](CCCN=C(N)N)NC(=O)[C@H](CSCNC(C)=O)NC(=O)CNC(=O)[C@H](Cc2ccccc2)NC(=O)[C@@H](NC(=O)[C@H](CO)NC(=O)[C@@H](N)CO)CSSC[C@@H](C(=O)N[C@@H](CC(N)=O)C(=O)N[C@@H](CO)C(=O)N[C@@H](Cc2ccccc2)C(=O)N[C@@H](CCCN=C(N)N)C(N)=O)NC(=O)CNC(=O)[C@H](CC(C)C)NC(=O)CNC(=O)[C@H](CSCNC(C)=O)NC(=O)[C@H](CCC(N)=O)NC(=O)[C@H](C)NC(=O)CNC1=O has a Relative potency of 0.43.

For CC[C@H](C)[C@@H]1NC(=O)[C@H](CCCN=C(N)N)NC(=O)[C@H](CC(=O)O)NC(=O)[C@H]([C@@H](C)CC)NC(=O)[C@H](CCCN=C(N)N)NC(=O)[C@H](CSCNC(C)=O)NC(=O)CNC(=O)[C@H](Cc2ccccc2)NC(=O)[C@@H](NC(=O)[C@H](CO)NC(=O)[C@@H](N)CO)CSSC[C@@H](C(=O)NCC(=O)N[C@@H](CC(C)C)C(=O)NCC(=O)N[C@@H](CSCNC(C)=O)C(=O)N[C@@H](CC(N)=O)C(=O)N[C@@H](CO)C(=O)N[C@@H](Cc2ccccc2)C(=O)N[C@@H](CCCN=C(N)N)C(N)=O)NC(=O)[C@H](CCC(N)=O)NC(=O)[C@H](C)NC(=O)CNC1=O, the Relative potency was 0.042.

In the case of CC[C@H](C)[C@@H]1NC(=O)[C@H](CCCN=C(N)N)NC(=O)[C@H](CC(=O)O)NC(=O)[C@H]([C@@H](C)CC)NC(=O)[C@H](CCCN=C(N)N)NC(=O)CNC(=O)CNC(=O)[C@H](Cc2ccccc2)NC(=O)[C@@H](NC(=O)[C@H](CO)NC(=O)[C@@H](N)CO)CSSC[C@@H](C(=O)N[C@@H](CC(N)=O)C(=O)N[C@@H](CO)C(=O)N[C@@H](Cc2ccccc2)C(=O)N[C@@H](CCCN=C(N)N)C(N)=O)NC(=O)CNC(=O)[C@H](CC(C)C)NC(=O)CNC(=O)[C@H](CO)NC(=O)[C@H](CCC(N)=O)NC(=O)[C@H](C)NC(=O)CNC1=O, the Relative potency is reported as 1.7.

Work on CC[C@H](C)[C@@H]1NC(=O)[C@H](CCCN=C(N)N)NC(=O)[C@H](CC(=O)O)NC(=O)[C@H]([C@@H](C)CC)NC(=O)[C@H](CCCN=C(N)N)NC(=O)[C@H](CSCNC(C)=O)NC(=O)CNC(=O)[C@H](Cc2ccccc2)NC(=O)[C@@H](NC(=O)[C@H](CO)NC(=O)[C@@H](N)CO)CSSC[C@@H](C(=O)N[C@@H](CC(N)=O)C(=O)N[C@@H](CO)C(=O)N[C@@H](Cc2ccccc2)C(=O)N[C@@H](CCCN=C(N)N)C(N)=O)NC(=O)CNC(=O)[C@H](CC(C)C)NC(=O)CNC(=O)[C@H](CO)NC(=O)[C@H](CCC(N)=O)NC(=O)[C@H](C)NC(=O)CNC1=O yielded a Relative potency of 1.03.

CC[C@H](C)[C@@H]1NC(=O)[C@H](CCCN=C(N)N)NC(=O)[C@H](CC(=O)O)NC(=O)[C@H]([C@@H](C)CC)NC(=O)[C@H](CCCN=C(N)N)NC(=O)[C@H]2CSSC[C@@H](NC(=O)[C@H](CCC(N)=O)NC(=O)[C@H](C)NC(=O)CNC1=O)C(=O)NCC(=O)N[C@@H](CC(C)C)C(=O)NCC(=O)N[C@H](C(=O)N[C@@H](CC(N)=O)C(=O)N[C@@H](CO)C(=O)N[C@@H](Cc1ccccc1)C(=O)N[C@@H](CCCN=C(N)N)C(N)=O)CSSC[C@H](NC(=O)[C@H](CO)NC(=O)[C@@H](N)CO)C(=O)N[C@@H](Cc1ccccc1)C(=O)NCC(=O)N2 gave a Relative potency of 0.0073.

For CC[C@H](C)[C@@H]1NC(=O)[C@H](CCCN=C(N)N)NC(=O)[C@H](CC(=O)O)NC(=O)[C@H]([C@@H](C)CC)NC(=O)[C@H](CCCN=C(N)N)NC(=O)[C@H](CCSCNC(C)=O)NC(=O)CNC(=O)[C@H](Cc2ccccc2)NC(=O)[C@@H](NC(=O)[C@H](CO)NC(=O)[C@@H](N)CO)CSSC[C@@H](C(=O)N[C@@H](CC(N)=O)C(=O)N[C@@H](CO)C(=O)N[C@@H](Cc2ccccc2)C(=O)N[C@@H](CCCN=C(N)N)C(N)=O)NC(=O)CNC(=O)[C@H](CC(C)C)NC(=O)CNC(=O)[C@H](CCSCNC(C)=O)NC(=O)[C@H](CCC(N)=O)NC(=O)[C@H](C)NC(=O)CNC1=O, the Relative potency was 0.068.

Work on CC[C@H](C)[C@H](NC(=O)[C@H](CC/N=C(/N)NO)NC(=O)[C@H](CC(=O)O)NC(=O)[C@@H](NC(=O)[C@H](CCN=C(N)N)NC(=O)[C@H](CSCNC(C)=O)NC(=O)CNC(=O)[C@H](Cc1ccccc1)NC(=O)[C@H](CSCNC(C)=O)NC(=O)[C@H](CO)NC(=O)[C@@H](N)CO)[C@@H](C)CC)C(=O)NCC(=O)N[C@@H](C)C(=O)N[C@@H](CCC(N)=O)C(=O)C1SSC[C@@H](C(=O)N[C@@H](CC(N)=O)C(=O)CN[C@@H](CO)C(=O)N[C@@H](Cc2ccccc2)C(=O)N[C@@H](CCCN=C(N)N)C(N)=O)NC(=O)CNC(=O)[C@H](CC(C)C)NC(=O)CNC(=O)[C@H]1N (stereo in doubt; 9b) yielded a Relative potency of 0.013.

In the case of CC[C@H](C)[C@@H]1NC(=O)[C@H](CCCN=C(N)N)NC(=O)[C@H](CC(=O)O)NC(=O)[C@H]([C@@H](C)CC)NC(=O)[C@H](CCCN=C(N)N)NC(=O)[C@@H](NC(=O)CNC(=O)[C@H](Cc2ccccc2)NC(=O)[C@H](CSCNC(C)=O)NC(=O)[C@H](CO)NC(=O)[C@@H](N)CO)CSSC[C@@H](C(=O)N[C@@H](CC(N)=O)C(=O)N[C@@H](CO)C(=O)N[C@@H](Cc2ccccc2)C(=O)N[C@@H](CCCN=C(N)N)C(N)=O)NC(=O)CNC(=O)[C@H](CC(C)C)NC(=O)CNC(=O)[C@H](CSCNC(C)=O)NC(=O)[C@H](CCC(N)=O)NC(=O)[C@H](C)NC(=O)CNC1=O (H-SSC(Acm)FGCRIDRIGAQC(Acm)GLGCNSFR-NH2; disulfide 6-19), the Relative potency is reported as 0.0022.

In the case of CC[C@H](C)[C@@H]1NC(=O)[C@H](CCCN=C(N)N)NC(=O)[C@H](CC(=O)O)NC(=O)[C@H]([C@@H](C)CC)NC(=O)[C@H](CCCN=C(N)N)NC(=O)[C@@H](CSCNC(C)=O)NC(=O)CNC(=O)[C@H](Cc2ccccc2)NC(=O)[C@@H](NC(=O)[C@H](CO)NC(=O)[C@@H](N)CO)CSSC[C@@H](C(=O)N[C@@H](CC(N)=O)C(=O)N[C@@H](CO)C(=O)N[C@@H](Cc2ccccc2)C(=O)N[C@@H](CCCN=C(N)N)C(N)=O)NC(=O)CNC(=O)[C@H](CC(C)C)NC(=O)CNC(=O)[C@@H](CSCNC(C)=O)NC(=O)[C@H](CCC(N)=O)NC(=O)[C@H](C)NC(=O)CNC1=O, the Relative potency is reported as 0.044.

In the case of CC[C@H](C)[C@@H]1NC(=O)[C@H](CCCN=C(N)N)NC(=O)[C@H](CC(=O)O)NC(=O)[C@H]([C@@H](C)CC)NC(=O)[C@H](CCCN=C(N)N)NC(=O)[C@H](CCSCNC(C)=O)NC(=O)CNC(=O)[C@H](Cc2ccccc2)NC(=O)[C@@H](NC(=O)[C@H](CO)NC(=O)[C@@H](N)CO)CSSC[C@@H](C(=O)N[C@@H](CC(N)=O)C(=O)N[C@@H](CO)C(=O)N[C@@H](Cc2ccccc2)C(=O)N[C@@H](CCCN=C(N)N)C(N)=O)NC(=O)CNC(=O)[C@H](CC(C)C)NC(=O)CNC(=O)[C@H](CSCNC(C)=O)NC(=O)[C@H](CCC(N)=O)NC(=O)[C@H](C)NC(=O)CNC1=O, the Relative potency is reported as 0.24.
